Measurements from US7524503B2, “Human cytomegalovirus (HCMV) cytotoxic T cell epitopes, polyepitopes compositions comprising same and diagnostic and prophylactic and therapeutic uses therefor” (priority 2001, dated 2009).

Key:
HLA B8 = assay: MHC stabilization assay on T2 cells; format: cell-based, human; conditions: HLA B8 on transfected T2 cells; relative increase vs no peptide at 26° C.
HLA B27 = assay: MHC stabilization assay on T2 cells; format: cell-based, human; conditions: HLA B27 on transfected T2 cells; relative increase vs no peptide at 26° C.
[1] = tested on: PBMC from healthy HCMV seropositive donors; assay: IFN-γ ELISPOT assay; format: cell-based, human; conditions: peptide 10 μg/ml
In short: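 IFN-γ-secreting T cells were counted as spots, with no-peptide control wells subtracted and means taken from triplicate wells. These spots came from healthy seropositive carriers' PBMC, 2.5×10^5 per well.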

HLA B7 = molecular target: T1, HLA B7 (Homo sapiens, UniProt P01889); format: cell-based; conditions: HLA B7 on transfected T2 cells; relative increase vs no peptide at 26° C.
T1 construct: expressed in transfected cells; host or cells: T2 cells

[2] = tested on: peptide-sensitized autologous PHA blasts or LCLs; format: cell-based, human; parameters: key to CTL response: Y: Yes; ND: Not detected; conditions: predicted epitopes, Table 3

T1 sequence (P01889 25-362): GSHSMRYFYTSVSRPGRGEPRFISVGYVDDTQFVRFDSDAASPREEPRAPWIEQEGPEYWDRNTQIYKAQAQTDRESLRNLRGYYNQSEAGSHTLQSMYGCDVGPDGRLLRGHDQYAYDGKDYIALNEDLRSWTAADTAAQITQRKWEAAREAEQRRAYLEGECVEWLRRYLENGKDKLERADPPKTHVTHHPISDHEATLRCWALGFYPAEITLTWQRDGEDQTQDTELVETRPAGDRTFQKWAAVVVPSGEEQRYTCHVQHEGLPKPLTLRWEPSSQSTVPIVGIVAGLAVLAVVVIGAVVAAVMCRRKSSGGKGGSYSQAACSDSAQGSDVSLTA
T1 sequence (P61769 21-119, further chain): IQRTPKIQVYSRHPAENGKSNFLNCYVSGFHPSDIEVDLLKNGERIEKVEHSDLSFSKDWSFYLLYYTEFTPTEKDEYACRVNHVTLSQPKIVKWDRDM

RRRHRQDAL
MSE (MHC stabilization efficiency) (HLA B8): + (+ = 51-99%)
MSE (MHC stabilization efficiency) (HLA B27): ++ (++ = 100-199%)
ELISPOT Responses (SFC/10^6 PBMC) ([1]; donor eleven): 215 SFC/10^6 PBMC
ELISPOT Responses (SFC/10^6 PBMC) ([1]; donor sixteen): 71 SFC/10^6 PBMC

NVRRSWEEL (human cytomegalovirus pp150 CTL epitope peptide)
MSE (MHC stabilization efficiency) (HLA B7): ++ (++ = 100-199%)
ELISPOT Responses (SFC/10^6 PBMC) ([1]; donor five): 274 SFC/10^6 PBMC
ELISPOT Responses (SFC/10^6 PBMC) ([1]; donor four): 1431 SFC/10^6 PBMC

YRIQGKLEY
MSE (MHC stabilization efficiency) (HLA B27): − (− = 0-50%)
ELISPOT Responses (SFC/10^6 PBMC) ([1]; donor sixteen): TC(307) SFC/10^6 PBMC

QPKRRRHRQ
MSE (MHC stabilization efficiency) (HLA B8): − (− = 0-50%)

RRIEEICMK (human cytomegalovirus IE1 CTL epitope peptide) [reference compound]
MSE (MHC stabilization efficiency) (HLA B27): − (− = 0-50%)

VLCPKNMII [reference compound]
MSE (MHC stabilization efficiency) (HLA B8): − (− = 0-50%)

ELRRKMMYM (human cytomegalovirus IE1 CTL epitope peptide)
MSE (MHC stabilization efficiency) (HLA B8): ++ (++ = 100-199%)
ELISPOT Responses (SFC/10^6 PBMC) ([1]; donor eleven): 430 SFC/10^6 PBMC
ELISPOT Responses (SFC/10^6 PBMC) ([1]; donor epsilon): 1243 SFC/10^6 PBMC
ELISPOT Responses (SFC/10^6 PBMC) ([1]; donor one): 145 SFC/10^6 PBMC
ELISPOT Responses (SFC/10^6 PBMC) ([1]; donor sixteen): 4999 SFC/10^6 PBMC
CTL response [2]: Y

SPWAPTAPL (human cytomegalovirus pp150 CTL epitope peptide)
MSE (MHC stabilization efficiency) (HLA B7): +++ (+++ = 200-300%)
ELISPOT Responses (SFC/10^6 PBMC) ([1]; donor four): MB(180) SFC/10^6 PBMC

IMKDKNTPF (human cytomegalovirus IE2 CTL epitope peptide)
MSE (MHC stabilization efficiency) (HLA B8): +++ (+++ = 200-300%)

LCPKSIPGL
MSE (MHC stabilization efficiency) (HLA B8): − (− = 0-50%)

CRYKYLRKK (human cytomegalovirus pp28 CTL epitope peptide)
MSE (MHC stabilization efficiency) (HLA B27): − (− = 0-50%)

SPRTHYLMLL (human cytomegalovirus gH CTL epitope peptide)
MSE (MHC stabilization efficiency) (HLA B7): +++ (+++ = 200-300%)

WPRERAWAL (human cytomegalovirus pp150 CTL epitope peptide)
MSE (MHC stabilization efficiency) (HLA B7): +++ (+++ = 200-300%)
MSE (MHC stabilization efficiency) (HLA B8): ++ (++ = 100-199%)
ELISPOT Responses (SFC/10^6 PBMC) ([1]; donor sixteen): TC(67) SFC/10^6 PBMC

ELKRKMMYM (human cytomegalovirus IE1 CTL epitope peptide)
MSE (MHC stabilization efficiency) (HLA B8): − (− = 0-50%)
ELISPOT Responses (SFC/10^6 PBMC) ([1]; donor eleven): 300 SFC/10^6 PBMC
ELISPOT Responses (SFC/10^6 PBMC) ([1]; donor epsilon): SC(1000), SFC/10^6 PBMC
ELISPOT Responses (SFC/10^6 PBMC) ([1]; donor gamma): 100 SFC/10^6 PBMC
ELISPOT Responses (SFC/10^6 PBMC) ([1]; donor sixteen): 4999 SFC/10^6 PBMC
ELISPOT Responses (SFC/10^6 PBMC) ([1]; donor three): 1992 SFC/10^6 PBMC
CTL response [2]: Y

GRCQMLDRR (human cytomegalovirus gH CTL epitope peptide)
MSE (MHC stabilization efficiency) (HLA B27): − (− = 0-50%)

ARVYEIKCR (human cytomegalovirus pp28 CTL epitope peptide)
MSE (MHC stabilization efficiency) (HLA B27): − (− = 0-50%)
ELISPOT Responses (SFC/10^6 PBMC) ([1]; donor fourteen): RK(148) SFC/10^6 PBMC
CTL response [2]: Y

VMKRRIEEI (human cytomegalovirus IE1 CTL epitope peptide)
MSE (MHC stabilization efficiency) (HLA B8): + (+ = 51-99%)

PRKKKSKRI (human cytomegalovirus IE2 CTL epitope peptide)
MSE (MHC stabilization efficiency) (HLA B8): − (− = 0-50%)

MPRCLFAGPL (human cytomegalovirus gH CTL epitope peptide)
MSE (MHC stabilization efficiency) (HLA B7): +++ (+++ = 200-300%)

RRKMMYMCY (human cytomegalovirus IE1 CTL epitope peptide)
MSE (MHC stabilization efficiency) (HLA B27): + (+ = 51-99%)

TPRVYYQTL (human cytomegalovirus US11 CTL epitope peptide)
MSE (MHC stabilization efficiency) (HLA B7): +++ (+++ = 200-300%)

QIKVRVDMV (human cytomegalovirus IE1 CTL epitope peptide)
MSE (MHC stabilization efficiency) (HLA B8): + (+ = 51-99%)
ELISPOT Responses (SFC/10^6 PBMC) ([1]; donor eleven): 2425 SFC/10^6 PBMC
ELISPOT Responses (SFC/10^6 PBMC) ([1]; donor epsilon): 2848 SFC/10^6 PBMC
ELISPOT Responses (SFC/10^6 PBMC) ([1]; donor one): 475 SFC/10^6 PBMC
ELISPOT Responses (SFC/10^6 PBMC) ([1]; donor sixteen): 2251 SFC/10^6 PBMC
CTL response [2]: Y

RRDHSLERL (human cytomegalovirus gH CTL epitope peptide)
MSE (MHC stabilization efficiency) (HLA B27): − (− = 0-50%)

APVAGSMPEL (human cytomegalovirus US11 CTL epitope peptide)
MSE (MHC stabilization efficiency) (HLA B7): +++ (+++ = 200-300%)

TPMLLIFGHL (human cytomegalovirus gH CTL epitope peptide)
MSE (MHC stabilization efficiency) (HLA B7): ++ (++ = 100-199%)

RHRIKEHML (human cytomegalovirus IE1 CTL epitope peptide)
MSE (MHC stabilization efficiency) (HLA B8): − (− = 0-50%)

KARDHLAVL (human cytomegalovirus pp150 CTL epitope peptide)
MSE (MHC stabilization efficiency) (HLA B7): +++ (+++ = 200-300%)
ELISPOT Responses (SFC/10^6 PBMC) ([1]; donor four): MB(975) SFC/10^6 PBMC

KARAKKDEL (human cytomegalovirus IE1 CTL epitope peptide)
MSE (MHC stabilization efficiency) (HLA B7): −/− (− = 0-50%)
MSE (MHC stabilization efficiency) (HLA B8): −/− (− = 0-50%)
ELISPOT Responses (SFC/10^6 PBMC) ([1]; donor eleven): 235 SFC/10^6 PBMC
ELISPOT Responses (SFC/10^6 PBMC) ([1]; donor four): 231 SFC/10^6 PBMC

TRVKRNVKK (human cytomegalovirus pp50 CTL epitope peptide)
MSE (MHC stabilization efficiency) (HLA B27): − (− = 0-50%)

FPDLFCLPL (human cytomegalovirus gH CTL epitope peptide)
MSE (MHC stabilization efficiency) (HLA B7): +++ (+++ = 200-300%)

QARLTVSGL
MSE (MHC stabilization efficiency) (HLA B7): +++ (+++ = 200-300%)
ELISPOT Responses (SFC/10^6 PBMC) ([1]; donor four): MB(1116) SFC/10^6 PBMC

APYQRDNFIL (human cytomegalovirus gH CTL epitope peptide)
MSE (MHC stabilization efficiency) (HLA B7): +++ (+++ = 200-300%)
